# Data published in patent US20070213408A1, “Use of Acetyl L-Carnitine for the Preparation of a Medicine for the Treatment of Neuropathic Pain in Diabetic Patients” (SIGMA-TAU INDUSTRIE FARMACEUTICHE RIUNITE S.P.A., priority 2004, published 2007).
# How the values were obtained:
# [1] = system: patients with diabetic neuropathy; conditions: 120 patients with diabetic neuropathy; cited from earlier work
# [2] = system: patients with diabetic neuropathy; conditions: approximately 200 patients with diabetic neuropathy; cited from earlier work
# [3] = system: Patients with type 2 diabetes on insulin treatment; assay: Double-blind placebo-controlled clinical trials in diabetic peripheral neuropathy, VAS pain assessment, patients on insulin; type: in vivo, human; conditions: 52 weeks
# Protocol: (§1) Two double-blind placebo-controlled clinical trials, identical in their experimental design, were conducted in patients with diagnoses of diabetic peripheral neuropathy selected according to the criteria established in the San Antonio, Tex. conference (Diabetes 37:1000-1004, 1988).
# (§2) Acetyl L-carnitine was administered orally at doses of 1.5 g/day and 3.0 g/day for continuously for 52 weeks.
# (§3) One objective of the studies consisted in the possible modification of the Visual Analogue Scale (VAS) (Scott J. Huskisson EC. Graphic representation of pain. Pain 1976;2:175-184) in the subjective assessment of pain symptoms and the main sensorimotor clinical parameters.
# The second population comprised patients with type 2 diabetes treated with insulin. Here, too, the population included a placebo group (Group 4) matching up to the same inclusion criteria as the patients treated with acetyl L-carnitine (on insulin treatment).
# [4] = system: type I and II diabetics with symmetrical distal polyneuropathy or multineuropathy; conditions: treated patients out of 333 recruited; cited from earlier work
# [5] = system: Patients with type 2 diabetes not on insulin treatment; assay: Double-blind placebo-controlled clinical trials in diabetic peripheral neuropathy, VAS pain assessment, patients not on insulin; type: in vivo, human; conditions: for VAS: 52 weeks
# Protocol: as §1, §2, §3
smiles,measurement,setting,value
"CC(=O)O[C@H](CC(=O)[O-])C[N+](C)(C)C [Acetyl L-carnitine, acetyl L-carnitine]",improvement in symptoms,[1],distinct improvement in symptoms
same,difference between acetyl L-carnitine and placebo,[2],failed to show any significant difference
same,VAS,"[3]; 1.5 g/die orally, n = 41 pts",16.8 ± 30.1
same,VAS,"[3]; 3.0 g/day orally, n = 57 pts",25.9 ± 31.2
same,patients presenting an improvement in pain symptoms,[4],39%
same,VAS,"[5]; 1.5 g/day orally, n = 39 pts",7.6 ± 34.7
same,VAS,"[5]; 3.0 g/day orally, n = 40 pts",24.2 ± 32.3
same,activity compared to the placebo group,"[5]; end of treatment, active only at higher dose (3 g/day)",active in a dose-related manner
